Experimental data as given in PubChem BioAssay AID248 (DTP/NCI, 2004).
Several values for one entry are separate records, joined by “and”; a condition that tells them apart may be missing. Identical values can stand only once. Toxic doses and inconclusive results are not listed.

System: L1210 leukemia ip in BDF1 mice, survival T/C
Assay: NCI In Vivo Anticancer Drug Screen. Data for tumor model L1210 Leukemia (intraperitoneal) in B6D2F1 (BDF1) mice
Settings: endpoint: mean survival time, higher = longer survival
In short: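 Tumor cells were implanted, animals were treated, and survival was followed. The result divides the treated measurement by the vehicle-control measurement.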

[1] = dose: 50.0 mg/kg/injection, schedule: Q01DX001 (ip), vehicle: saline
[2] = dose: 100.0 mg/kg/injection, schedule: Q01DX001 (ip), vehicle: saline
[3] = dose: 200.0 mg/kg/injection, schedule: Q01DX001 (ip), vehicle: saline
[4] = dose: 400.0 mg/kg/injection, schedule: Q01DX001 (ip), vehicle: saline
[5] = dose: 100.0 mg/kg/injection, schedule: Q04DX003 (ip), vehicle: saline with Tween-80
[6] = dose: 200.0 mg/kg/injection, schedule: Q04DX003 (ip), vehicle: saline with Tween-80
[7] = dose: 400.0 mg/kg/injection, schedule: Q04DX003 (ip), vehicle: saline with Tween-80
[8] = dose: 100.0 mg/kg/injection, schedule: Q04DX003 (ip), vehicle: Klucel (hydroxypropylcellulose) (HPC)
[9] = dose: 200.0 mg/kg/injection, schedule: Q04DX003 (ip), vehicle: Klucel (hydroxypropylcellulose) (HPC)
[10] = dose: 400.0 mg/kg/injection, schedule: Q04DX003 (ip), vehicle: Klucel (hydroxypropylcellulose) (HPC)
[11] = dose: 25.0 mg/kg/injection, schedule: Q04DX003 (ip), vehicle: saline with Tween-80
[12] = dose: 50.0 mg/kg/injection, schedule: Q01DX009 (ip), vehicle: saline with Tween-80
[13] = dose: 50.0 mg/kg/injection, schedule: Q04DX003 (ip), vehicle: saline with Tween-80
[14] = dose: 100.0 mg/kg/injection, schedule: Q01DX009 (ip), vehicle: saline with Tween-80
[15] = dose: 100.0 mg/kg/injection, schedule: Q01DX009 (ip), vehicle: Klucel (hydroxypropylcellulose) (HPC)
[16] = dose: 200.0 mg/kg/injection, schedule: Q01DX009 (ip), vehicle: Klucel (hydroxypropylcellulose) (HPC)
[17] = dose: 100.0 mg/kg/injection, schedule: Q01DX001 (ip), vehicle: Klucel (hydroxypropylcellulose) (HPC)
[18] = dose: 100.0 mg/kg/injection, schedule: Q01DX009 (ip), vehicle: saline sonified
[19] = dose: 200.0 mg/kg/injection, schedule: Q01DX001 (ip), vehicle: Klucel (hydroxypropylcellulose) (HPC)
[20] = dose: 200.0 mg/kg/injection, schedule: Q01DX009 (ip), vehicle: saline sonified
[21] = dose: 400.0 mg/kg/injection, schedule: Q01DX001 (ip), vehicle: Klucel (hydroxypropylcellulose) (HPC)
[22] = dose: 400.0 mg/kg/injection, schedule: Q01DX009 (ip), vehicle: saline sonified

SMILES: COc1ccccc1CN1CCCN(Cc2ccccc2OC)C1c1ccccc1
- T/C [1]: 101 % of control
- T/C [2]: 109 % of control
- T/C [3]: 90 % of control
- T/C [4]: 90 % of control

SMILES: N=c1c2ccccc2c2ccccc2n1O
- T/C [5]: 96 % of control
- T/C [6]: 98 % of control
- T/C [7]: 103 % of control

SMILES: CCCCNC(=O)CC#N
- T/C [8]: 104 % of control
- T/C [9]: 107 % of control
- T/C [10]: 107 % of control

SMILES: CC(=O)OC1COC(Cl)C(OC(C)=O)C1OC(C)=O (stereo unspecified)
- T/C (dose: 100.0 mg/kg/injection, schedule: Q01DX001 (sc), vehicle: olive oil, sesame oil, peanut oil): 103 % of control
- T/C (dose: 200.0 mg/kg/injection, schedule: Q01DX001 (sc), vehicle: olive oil, sesame oil, peanut oil): 97 % of control
- T/C (dose: 400.0 mg/kg/injection, schedule: Q01DX001 (sc), vehicle: olive oil, sesame oil, peanut oil): 97 % of control

SMILES: CCCCCCC1N(C)CCCN1C
- T/C (dose: 25.0 mg/kg/injection, schedule: Q01DX009 (ip), vehicle: saline with Tween-80): 98 % of control
- T/C [11]: 100 % of control
- T/C [12]: 94 % of control
- T/C [13]: 98 % of control
- T/C [14]: 86 % of control
- T/C [5]: 100 % of control and 103 % of control

SMILES: C=C(C)COc1c(Cl)cc(Cl)cc1C=Nc1ccccc1
- T/C [12]: 101 % of control
- T/C (dose: 100.0 mg/kg/injection, schedule: Q01DX001 (ip), vehicle: saline with Tween-80): 94 % of control
- T/C [14]: 90 % of control
- T/C (dose: 200.0 mg/kg/injection, schedule: Q01DX001 (ip), vehicle: saline with Tween-80): 89 % of control
- T/C (dose: 200.0 mg/kg/injection, schedule: Q01DX009 (ip), vehicle: saline with Tween-80): 104 % of control

SMILES: O=C(O)c1ccc(N=NSc2ncnc3nc[nH]c23)cc1O
- T/C (dose: 2.5 mg/kg/injection, schedule: Q01DX Z (ip), vehicle: carboxymethylcellulose (CMC)): 150 % of control
- T/C (dose: 5.0 mg/kg/injection, schedule: Q01DX Z (ip), vehicle: carboxymethylcellulose (CMC)): 116 % of control
- T/C (dose: 10.0 mg/kg/injection, schedule: Q01DX Z (ip), vehicle: carboxymethylcellulose (CMC)): 116 % of control
- T/C (dose: 20.0 mg/kg/injection, schedule: Q01DX Z (ip), vehicle: carboxymethylcellulose (CMC)): 107 % of control
- T/C (dose: 40.0 mg/kg/injection, schedule: Q01DX015 (ip), vehicle: carboxymethylcellulose (CMC)): 88 % of control

SMILES: Cc1nc(Cl)ncc1N
- T/C [2]: 100 % of control
- T/C [3]: 98 % of control
- T/C [4]: 98 % of control

SMILES: CCCCCNC(=O)CCC
- T/C [15]: 108 % of control
- T/C [8]: 96 % of control
- T/C [16]: 108 % of control
- T/C [9]: 107 % of control
- T/C (dose: 400.0 mg/kg/injection, schedule: Q01DX009 (ip), vehicle: Klucel (hydroxypropylcellulose) (HPC)): 106 % of control
- T/C [10]: 95 % of control

SMILES: CNCCC(CNC1=NCCN1)(c1cccc2ccccc12)C(C)C (stereo unspecified)
- T/C [8]: 94 % of control

SMILES: Cc1cccc(C)c1C1=CCCCC1
- T/C [1]: 108 % of control
- T/C [2]: 104 % of control
- T/C [3]: 104 % of control
- T/C [4]: 110 % of control

SMILES: NC(=O)N/N=C/c1cccs1
- T/C [11]: 95 % of control
- T/C [13]: 103 % of control
- T/C [5]: 106 % of control

SMILES: CCCCCCCC/C=C\CCCCCCCC(=O)OCCCCCCCC
- T/C [17]: 97 % of control
- T/C [18]: 102 % of control
- T/C [19]: 98 % of control
- T/C [20]: 98 % of control
- T/C [21]: 92 % of control
- T/C [22]: 105 % of control

SMILES: S=C(NC1CCCCC1)NC1CC2C=CC1C2 (stereo unspecified)
- T/C (dose: 100.0 mg/kg/injection, schedule: Q04DX002 (ip), vehicle: saline with Tween-80): 90 % of control
- T/C (dose: 200.0 mg/kg/injection, schedule: Q04DX002 (ip), vehicle: saline with Tween-80): 93 % of control
- T/C (dose: 400.0 mg/kg/injection, schedule: Q04DX002 (ip), vehicle: saline with Tween-80): 93 % of control

SMILES: CCCCN(CCCC)C(=O)NS(=O)(=O)c1ccc(N)cc1
- T/C [5]: 95 % of control
- T/C [6]: 104 % of control
- T/C [7]: 101 % of control

SMILES: CCCCCCSc1nccnc1C
- T/C (dose: 25.0 mg/kg/injection, schedule: Q01DX009 (ip), vehicle: Klucel (hydroxypropylcellulose) (HPC)): 100 % of control
- T/C (dose: 50.0 mg/kg/injection, schedule: Q01DX001 (ip), vehicle: Klucel (hydroxypropylcellulose) (HPC)): 92 % of control
- T/C (dose: 50.0 mg/kg/injection, schedule: Q01DX009 (ip), vehicle: Klucel (hydroxypropylcellulose) (HPC)): 92 % of control and 96 % of control
- T/C (dose: 50.0 mg/kg/injection, schedule: Q04DX002 (ip), vehicle: Klucel (hydroxypropylcellulose) (HPC)): 92 % of control
- T/C (dose: 50.0 mg/kg/injection, schedule: Q04DX003 (ip), vehicle: Klucel (hydroxypropylcellulose) (HPC)): 93 % of control
- T/C [17]: 95 % of control
- T/C [15]: 123 % of control and 91 % of control
- T/C (dose: 100.0 mg/kg/injection, schedule: Q04DX002 (ip), vehicle: Klucel (hydroxypropylcellulose) (HPC)): 102 % of control
- T/C [8]: 95 % of control
- T/C [19]: 98 % of control
- T/C [16]: 100 % of control
- T/C (dose: 200.0 mg/kg/injection, schedule: Q04DX002 (ip), vehicle: Klucel (hydroxypropylcellulose) (HPC)): 87 % of control
- T/C [9]: 92 % of control
- T/C [21]: 98 % of control
- T/C (dose: 400.0 mg/kg/injection, schedule: Q04DX002 (ip), vehicle: Klucel (hydroxypropylcellulose) (HPC)): 94 % of control
- T/C [10]: 87 % of control

SMILES: O=C(O)[C@H](O)[C@@H](O)C(=O)O.[Ga]
- T/C [2]: 106 % of control
- T/C [3]: 100 % of control
- T/C [4]: 104 % of control

SMILES: CC(=O)OCC1OC(n2cnc([N+](=O)[O-])c2Br)C(OC(C)=O)C1OC(C)=O (stereo unspecified)
- T/C [1]: 98 % of control
- T/C [2]: 98 % of control
- T/C [3]: 102 % of control
- T/C [4]: 102 % of control

SMILES: CCCCCCOc1ccc(C(=N)N(CCCC)CCCC)c2ccccc12
- T/C (dose: 5.0 mg/kg/injection, schedule: Q01DX001 (ip), vehicle: saline): 97 % of control
- T/C (dose: 10.0 mg/kg/injection, schedule: Q01DX001 (ip), vehicle: saline): 97 % of control
- T/C (dose: 20.0 mg/kg/injection, schedule: Q01DX001 (ip), vehicle: saline): 89 % of control

SMILES: COC(=O)CC1CC(C=O)C1 (stereo unspecified)
- T/C (dose: 100.0 mg/kg/injection, schedule: Q04DX002 (ip), vehicle: saline): 105 % of control
- T/C (dose: 200.0 mg/kg/injection, schedule: Q04DX002 (ip), vehicle: saline): 102 % of control
- T/C (dose: 400.0 mg/kg/injection, schedule: Q04DX002 (ip), vehicle: saline): 105 % of control

SMILES: Clc1ccc(-c2ncnc3c2Cc2ccccc2-3)cc1
- T/C [18]: 98 % of control
- T/C (dose: 100.0 mg/kg/injection, schedule: Q04DX003 (ip), vehicle: saline sonified): 99 % of control
- T/C [20]: 98 % of control
- T/C (dose: 200.0 mg/kg/injection, schedule: Q04DX003 (ip), vehicle: saline sonified): 99 % of control
- T/C [22]: 97 % of control
- T/C (dose: 400.0 mg/kg/injection, schedule: Q04DX003 (ip), vehicle: saline sonified): 96 % of control

SMILES: COC(=O)CCc1nc(N)nc(N)n1
- T/C (dose: 50.0 mg/kg/injection, schedule: Q01DX001 (ip), vehicle: carboxymethylcellulose (CMC)): 98 % of control
- T/C (dose: 100.0 mg/kg/injection, schedule: Q01DX001 (ip), vehicle: carboxymethylcellulose (CMC)): 90 % of control
- T/C (dose: 200.0 mg/kg/injection, schedule: Q01DX001 (ip), vehicle: carboxymethylcellulose (CMC)): 101 % of control
- T/C (dose: 400.0 mg/kg/injection, schedule: Q01DX001 (ip), vehicle: carboxymethylcellulose (CMC)): 90 % of control

SMILES: CC(Cc1ccccc1)NCCn1cnc2c1c(=O)n(C)c(=O)n2C (stereo unspecified)
- T/C (dose: 6.25 mg/kg/injection, schedule: Q01DX009 (ip), vehicle: saline): 94 % of control
- T/C (dose: 12.5 mg/kg/injection, schedule: Q01DX009 (ip), vehicle: saline): 98 % of control
- T/C (dose: 25.0 mg/kg/injection, schedule: Q01DX009 (ip), vehicle: saline): 94 % of control
- T/C (dose: 50.0 mg/kg/injection, schedule: Q01DX009 (ip), vehicle: saline): 102 % of control
